# Data as given in article PMC7108868, “Agonist-mediated switching of ion selectivity in TPC2 differentially promotes lysosomal function” (eLife, 2020).
# Where two headings read alike, the source gives them in different places.
# Tests used:
# Type in all cases: cell-based
# TPC2 [1] = molecular target: T1, TPC2 (Homo sapiens, UniProt Q8NHX9, L11A/L12A); test: Fura-2 Ca2+ imaging, block of TPC2-A1-N response at […]
# T1 construct: gene TPCN2; hTPC2^L11A/L12A (plasma membrane targeted)
# TPC2 [2] = molecular target: T2, TPC2 (Homo sapiens, UniProt Q8NHX9); test: endo-lysosomal patch-clamp (also FLIPR Ca2+ assay, EC50 […])
# T2 construct: gene TPCN2; hTPC2, C-terminal YFP
# TPC2 [3] = molecular target: T3, TPC2 (Mus musculus, UniProt Q8BWC0); test: GCaMP Ca2+ imaging and endo-lysosomal patch-clamp, […]; set-up: gene Tpcn2; MmTPC2-GCaMP6s; mTPC2
# TPC2 [4] = molecular target: T2, TPC2; test: endo-lysosomal patch-clamp (also FLIPR Ca2+ assay, EC50 […]); remark: listed apart in the source
# TPC2 [5] = molecular target: T3, TPC2; test: endo-lysosomal patch-clamp, […], with TPC2 KO control; set-up: gene Tpcn2; mTPC2; endogenous TPC2 in alveolar macrophages
# T1 sequence (Q8NHX9 whole entry L11A/L12A): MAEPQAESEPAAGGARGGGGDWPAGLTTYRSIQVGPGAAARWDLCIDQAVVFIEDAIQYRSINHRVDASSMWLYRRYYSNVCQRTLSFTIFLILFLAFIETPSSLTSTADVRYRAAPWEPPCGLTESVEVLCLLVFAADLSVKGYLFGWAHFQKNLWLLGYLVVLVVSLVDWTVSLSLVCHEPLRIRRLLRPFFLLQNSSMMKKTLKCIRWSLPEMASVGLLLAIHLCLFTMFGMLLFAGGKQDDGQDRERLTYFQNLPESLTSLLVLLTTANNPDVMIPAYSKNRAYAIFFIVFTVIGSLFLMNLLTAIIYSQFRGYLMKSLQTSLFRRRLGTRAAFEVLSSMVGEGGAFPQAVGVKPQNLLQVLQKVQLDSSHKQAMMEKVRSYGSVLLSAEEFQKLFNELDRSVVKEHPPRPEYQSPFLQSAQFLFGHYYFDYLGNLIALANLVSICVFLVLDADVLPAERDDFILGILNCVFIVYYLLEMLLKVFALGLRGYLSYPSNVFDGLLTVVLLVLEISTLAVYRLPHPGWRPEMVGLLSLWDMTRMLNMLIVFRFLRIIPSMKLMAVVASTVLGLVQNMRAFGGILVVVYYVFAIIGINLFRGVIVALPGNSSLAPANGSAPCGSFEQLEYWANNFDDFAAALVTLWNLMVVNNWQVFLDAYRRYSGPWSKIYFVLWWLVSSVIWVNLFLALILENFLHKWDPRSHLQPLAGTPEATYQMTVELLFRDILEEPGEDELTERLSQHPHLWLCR
# T2 sequence (Q8NHX9 whole entry): as the sequence (Q8NHX9 whole entry L11A/L12A) above, with A11L, A12L counted along it
# T3 sequence (Q8BWC0 whole entry): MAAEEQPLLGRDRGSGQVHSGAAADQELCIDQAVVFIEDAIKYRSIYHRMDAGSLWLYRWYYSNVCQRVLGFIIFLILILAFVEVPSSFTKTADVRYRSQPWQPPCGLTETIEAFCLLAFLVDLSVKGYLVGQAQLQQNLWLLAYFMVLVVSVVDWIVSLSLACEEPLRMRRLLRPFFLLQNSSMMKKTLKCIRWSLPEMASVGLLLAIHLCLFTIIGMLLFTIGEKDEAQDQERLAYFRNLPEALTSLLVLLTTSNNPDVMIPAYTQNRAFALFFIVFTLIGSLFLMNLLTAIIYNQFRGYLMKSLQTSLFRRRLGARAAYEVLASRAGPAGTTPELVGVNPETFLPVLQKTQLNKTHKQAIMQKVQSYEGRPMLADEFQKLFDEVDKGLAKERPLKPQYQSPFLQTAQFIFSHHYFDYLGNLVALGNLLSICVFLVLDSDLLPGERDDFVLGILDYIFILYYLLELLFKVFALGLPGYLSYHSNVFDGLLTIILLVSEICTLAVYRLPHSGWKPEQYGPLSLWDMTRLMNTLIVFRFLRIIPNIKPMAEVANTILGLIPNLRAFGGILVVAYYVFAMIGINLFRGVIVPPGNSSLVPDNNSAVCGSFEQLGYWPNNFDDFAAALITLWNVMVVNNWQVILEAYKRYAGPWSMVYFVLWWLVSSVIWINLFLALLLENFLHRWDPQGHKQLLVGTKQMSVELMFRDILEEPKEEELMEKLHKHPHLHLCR
smiles,measurement,setting,value
"OCCN1CCN(CCCN2c3ccccc3Sc3ccc(C(F)(F)F)cc32)CC1 [Flu, fluphenazine]","Fura-2 Ca2+ imaging, block of TPC2-A1-N response at 10 μM",TPC2 [1],"responses to TPC2-A1-N were selectively blocked by the recently identified TPC2 blockers tetrandrine (Tet), raloxifene (Ral), and fluphenazine (Flu)"
"O=C(c1ccc(OCCN2CCCCC2)cc1)c1c(-c2ccc(O)cc2)sc2cc(O)ccc12 [Ral, raloxifene]","Fura-2 Ca2+ imaging, block of TPC2-A1-N response at 10 μM",TPC2 [1],"responses to TPC2-A1-N were selectively blocked by the recently identified TPC2 blockers tetrandrine (Tet), raloxifene (Ral), and fluphenazine (Flu)"
"N#CC(C(=O)Nc1ccc(C(F)(F)F)cc1)=C(O)c1cc(Cl)cc(Cl)c1 [TPC2-A1-N, 2-Cyano-3-(3,5-dichlorophenyl)−3-hydroxy-N-(4-(trifluoromethyl)phenyl)acrylamide]",EC50,TPC2 [2],600 nM
same,"GCaMP Ca2+ imaging and endo-lysosomal patch-clamp, 10 μM",TPC2 [3],mouse TPC2 fused to GCaMP6 (MmTPC2^GCaMP) confirmed that TPC2-A1-N evoked larger responses than TPC2-A1-P
"Cc1c(C(=O)O)cc(-c2cc(Br)ccc2OC(F)(F)F)n1CC1CCCCC1 [TPC2-A1-P, 5-(5-Bromo-2-(trifluoromethoxy)phenyl)−1-(cyclohexylmethyl)−2-methyl-1H-pyrrole-3-carboxylic acid]",EC50,TPC2 [4],600 nM
same,"endo-lysosomal patch-clamp, 10 μM, with TPC2 KO control",TPC2 [5],both TPC2-A1-N and TPC2-A1-P evoked measurable endogenous TPC2-like currents in macrophages from wild-type animals
"COc1ccc2cc1Oc1ccc(cc1)C[C@H]1c3cc(c(OC)cc3CCN1C)Oc1c(OC)c(OC)cc3c1[C@H](C2)N(C)CC3 [Tet, tetrandrine]","Fura-2 Ca2+ imaging, block of TPC2-A1-N response at 10 μM",TPC2 [1],"responses to TPC2-A1-N were selectively blocked by the recently identified TPC2 blockers tetrandrine (Tet), raloxifene (Ral), and fluphenazine (Flu)"
